Source: patent publication US6043072A, “Nucleic acids encoding Taxus geranylgeranyl diphosphate synthase, and methods of use” (Washington State University Research Foundation, priority 1998, dated 2000)
Each block holds one compound with its values, some of them ahead of it.

What was measured:
[1] = molecular target: T. canadensis GGPP synthase (Taxus canadensis, UniProt Q9ZPM3); assay: Kinetic evaluation of recombinant GGPP synthase (standard prenyltransferase assay, double reciprocal plots); type: biochemical; conditions: for relative velocities of the reaction with allylic co-substrates: co-substrate at 12.5 and 25 mM, IPP and Mg^2+ at saturation
T. canadensis GGPP synthase, sequence (Q9ZPM3 99-393): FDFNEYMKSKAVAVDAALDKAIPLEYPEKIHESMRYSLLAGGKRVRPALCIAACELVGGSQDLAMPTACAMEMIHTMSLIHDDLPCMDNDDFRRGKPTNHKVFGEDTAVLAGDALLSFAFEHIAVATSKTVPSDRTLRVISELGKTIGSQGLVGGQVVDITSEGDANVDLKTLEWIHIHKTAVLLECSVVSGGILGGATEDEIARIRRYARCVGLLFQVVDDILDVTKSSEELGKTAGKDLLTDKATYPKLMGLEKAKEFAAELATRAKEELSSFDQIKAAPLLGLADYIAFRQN
Procedure: The reaction was quenched by the addition of 300 mil of methanol:conc. HCl (4:1, v/v), and the allylic diphosphate products were solvolyzed (50, 51) upon further incubation at 42° C. for 20 min. The resulting solvolysis products were extracted twice with 1 ml pentane, and were either analyzed by liquid scintillation counting (in toluene:ethanol (7:3, v/v) containing 0.4% Omnifluor (DuPont NEN); ^14 C counting efficiency=96.0%) or concentrated on ice under a gentle stream of Ar to […] for further analysis.

GGPP synthase proteins = molecular target: T1, GGPP synthase proteins (Taxus canadensis, UniProt Q9ZPM3); assay: Physical properties of GGPP synthase proteins isolated from various Taxus species (Table 1); type: biochemical, T. canadensis; T. brevifolia; T. cuspidata and T. baccata
T1 construct: values reportedly equal those of recombinant truncated (mature) T. canadensis enzyme
T1 sequence (Q9ZPM3 99-393): as above

[2] = test system: T. canadensis suspension cell cultures; assay: Methyl jasmonate induction of suspension cell cultures: paclitaxel in medium and cell mass; type: cell-based
Procedure: Suspension cell cultures were treated with methyl jasmonate 7 d after subculture and harvested at 8, 12, 24, 48 or 168 h after elicitation, or immediately before induction. During this 7 d induction period, the wet cell mass increased by about 10% and the paclitaxel concentration in the medium (where the majority of the taxoids accumulate) rose from 2.5 mg/l to 32 mg/I, with the greatest increase occurring after 48 h. The concentration of paclitaxel was measured by calibrated HPLC with UV detection as described in Hezari et al, Arch. Biochem. Biophys., 337:185-190 (1997).

GGPP synthase mRNA = assay: RNA-blot analysis over the time course of methyl jasmonate induction; type: cell-based, T. canadensis; conditions: at 8 h; elevated through at least 48 h
Procedure: (§1) Total RNA was isolated from T. canadensis suspension cell cultures using the method set forth in Example 1. Equivalent amounts of RNA […] from cells that had been harvested 8, 12, 24, 48, and 168 h after methyl jasmonate induction, as well as RNA isolated from non-induced cells (0 h), were separated by electrophoresis on a formaldehyde-denaturing agarose gel, along with RNA size standards (Promega Corporation, Madison, Wis.). The separated RNA was blotted to nylon membrane by capillary action and then fixed by UV irradiation. Radiolabeled probes corresponding to the full length GGPP synthase coding region (nucleotide 308 to nucleotide 1489 of the nucleic acid sequence set forth in SEQ ID NO:1), and to an internal fragment (nucleotides 173 to 1875 inclusive) of the taxadiene synthase cDNA reported in Wildung, M. R. and Croteau, R. (1996) J. Biol. […] The blot was incubated sequentially with each probe for 16 h at 65° C., then washed twice with 2×SSC at room temperature, and then thrice with 0.5×SSC at 65° C. The blot was imaged using a Bio-Rad GS-525 Molecular Imager® System and Molecular Analyst version 2.1 software.

taxadiene synthase mRNA = assay: as above; type: cell-based, T. canadensis; conditions: at 8 h; elevated through at least 48 h
Procedure: as §1

GGPP synthase = assay: Enzyme activity in cell culture extracts after methyl jasmonate induction; type: cell-based, T. canadensis; conditions: crude extracts, 0-168 h after induction (FIG. 5)
Procedure: (§2) The same T. canadensis cell cultures used for RNA blot analysis were also used to determine the relative activities of GGPP synthase and taxadiene synthase over the course of methyl jasmonate induction of paclitaxel biosynthesis. […] Particulate material and cellular debris were removed from the homogenates by centrifugation, first at 3000 g, then at 31,000 g, for 20 min at 4° C. Protein concentration in the supernatant used as the enzyme source was estimated by the method of Bradford (Bradford, M. M. (1976) Anal. Biochem. 72:24814 254). GGPP synthase activity was determined by the standard prenyltransferase assay described in Example 4, except that 100 μl of crude extract (150 μg protein) isolated from T. canadensis cell cultures was used as the enzyme source and the reactions were incubated for 10 min. Taxadiene synthase activity was determined by measuring the Mg^2+ -dependent conversion of [1-^3 H1 ]geranylgeranyl diphosphate (15 μM) to the olefin product as described in Hezari, M., Lewis, N. G. and Croteau, R. (1995) Arch. Biochem. Biophys., 322:437-444; […]., Gibson, D. M. and Croteau, R. (1997) Arch. Biochem. Biophys., 337:185-190. In this assay, 500 μl of the crude extract (750 μg protein) was incubated at 3 1° C. for 1 h.

taxadiene synthase = assay: as above; type: cell-based, T. canadensis; conditions: crude extracts, 0-168 h after induction (FIG. 5)
Procedure: as §2

SMILES: [Mn+2] [Mn^2+]
support of catalysis as divalent metal ion cofactor [1]: did not support catalysis

SMILES: CC/C=C\CC1C(=O)CCC1CC(=O)OC (centres unmarked) [methyl jasmonate]
paclitaxel concentration in the medium ([2]; after 7 d induction period, rose from 2.5 mg/l): 32 mg/I
increase of wet cell mass ([2]; during 7 d induction period): about 10%
steady state mRNA level of GGPP synthase (GGPP synthase mRNA): rapid increase
steady state mRNA level of taxadiene synthase (taxadiene synthase mRNA): rapid increase
GGPP synthase activity level (GGPP synthase): rose steadily to 48 h
taxadiene synthase activity level (taxadiene synthase): rose steadily to 48 h

The next lines start with the values.

relative velocities of the reaction with allylic co-substrates [1]: 66%
SMILES: CC(C)=CCC/C(C)=C/CC/C(C)=C/CO[P@@](=O)(O)OP(=O)(O)O (stereo in doubt) [FPP, farnesyl diphosphate]

relative velocities of the reaction with allylic co-substrates [1]: 100%
SMILES: CC(C)=CCC/C(C)=C/COP(=O)(O)OP(=O)(O)O [GPP, geranyl diphosphate]

Km ([1]; double reciprocal plotting, remaining reactants at saturation): 35 µM
Km (GGPP synthase proteins): 35 ± 3 µM
SMILES: [Mg+2] [Mg^2+]
